Test results as given in the NIST ThermoML archive (doi:10.1016/j.jct.2008.07.024).
Where “and” joins values, the source holds several entries; their conditions need not be identical. Equal values may be shown once. ± gives the expanded uncertainty stated by the source.

Conditions: Liquid, Closed cell (Static) method

vapor or sublimation pressure (303.15 K) [kPa] | vapor or sublimation pressure (313.15 K) | vapor or sublimation pressure (323.15 K) | SMILES
0.45 ± 0.02 | 0.87 ± 0.02 kPa and 0.89 ± 0.02 kPa | 1.59 ± 0.02 kPa and 1.61 ± 0.02 kPa | CCCOCCO [2-propoxyethanol]
7.92 ± 0.03 | 12.24 ± 0.03 kPa | 18.91 ± 0.04 kPa | CCCCCCC [heptane]
25.16 ± 0.05 | 37.42 ± 0.07 kPa | 54.11 ± 0.1 kPa | CCCCCC [hexane]
